Earlier results on three molecules are cited in article PMC3298469, “A selective and potent CXCR3 antagonist SCH 546738 attenuates the development of autoimmune diseases and delays graft rejection” (BMC Immunology, 2012).

One data set has as its system mouse. On the set-up: method as in ref 21 = [21]; Medina J Presented at the 29th National Medicinal Chemistry Symposium (Madison, Wisconsin), June 27-July 1 2004. Particulars: mouse model of CIA; cited from earlier work.
The next data set relates to rat. On the set-up: method as in ref 21 = [21]; Medina J Presented at the 29th National Medicinal Chemistry Symposium (Madison, Wisconsin), June 27-July 1 2004. Particulars: rat model of CIA; cited from earlier work.
The conditions of data set [1]: Phase II clinical trials, halted; cited from earlier work.
In the next data set the test system is EAE. On the set-up: method as in PMID 20050195. Particulars: by decreasing migration of inflammatory cells into the CNS; cited from earlier work.
In the next data set the test system is cardiac allograft. The note with it: cited from earlier work.
Details of data set [2]: method as in ref 44 = [44]; Medarex Announces Primary Endpoint Achieved in MDX-1100 Anti-IP-10 Antibody Phase 2 Trial for Rheumatoid Arthritis http://www.fiercebiotech.com/press-releases/medarex-announces-primary-endpoint-achiev. The note with it: phase 2 clinical trial for RA; cited from earlier work.

Read-outs that look alike come from different tables or passages of the source.

`CCOc1ccc(-n2c([C@@H](C)N(Cc3cccnc3)C(=O)Cc3ccc(OC(F)(F)F)cc3)nc3ncccc3c2=O)cc1` [AMG487]: the “effect in CIA” value is “reduced inflammation and cartilage damage” in the data set with mouse; “reduced inflammation and cartilage damage” in the data set with rat. Moreover, the clinical outcome in data set [1] was “lack of efficacy”.
On to `Cc1ccc(-c2ccc3c(c2)C=C(C(=O)Nc2ccc(C[N+](C)(C)C4CCOCC4)cc2)CCC3)cc1.[Cl-]` [TAK-779], for which, in the data set with EAE, the “effect on EAE” value was “reduce incidence and severity of EAE”. In the data set on cardiac allograft, the “effect on cardiac allograft vasculopathy” value is “attenuates cardiac allograft vasculopathy”.
Regarding MDX-1100: anti-IP-10 antibody, in data set [2], the clinical outcome is “efficacy”.
